# Laboratory results published in patent US20140275275A1, “Chlorhexadine Antiseptic” (CARNELL & HERZOG, LLC, priority 2013, published 2014).
# Tested on: methicillin-resistant Staphylococcus aureus
# Test: In-vitro time-kill test on S. aureus (MRSA)
# Conditions: for Post-exposure population: inoculum 1.460×10^7 CFU/ML
# Method: This example compares the test composition to a solution of 4% chlorhexidine gluconate. The microorganism used in the test was methicillin-resistant Staphylococcus aureus.
# An in-vitro time-kill test was performed on S. aureus using both the test composition and the solution of 4% chlorhexidine gluconate. A S. aureus suspension with an inoculum level of 1.460×10^7 colony-forming units (CFU)/ML was used for all tests. A 0.1 mL aliquot of the S. aureus suspension was added to 9.9 mL of the test composition or the 4% chlorhexidine gluconate solution and exposed for periods of one minute, five minutes, and 10 minutes. At the end of each exposure period, a neutralizer was added to stop the bactericidal activity.
smiles,measurement,setting,value
"N=C(NCCCCCCNC(=N)NC(=N)Nc1ccc(Cl)cc1)NC(=N)Nc1ccc(Cl)cc1.O=C(O)[C@H](O)[C@@H](O)[C@H](O)[C@H](O)CO.O=C(O)[C@H](O)[C@@H](O)[C@H](O)[C@H](O)CO [4% chlorhexidine gluconate, chlorhexidine gluconate]",Log10 reduction,exposure 1 minute,4.0798 Log10
same,Percent reduction,exposure 1 minute,99.9917%
same,Post-exposure population,exposure 1 minute,1.2150 × 10^3 CFU/ML
same,Log10 reduction,exposure 5 minutes,6.1644 Log10
same,Percent reduction,exposure 5 minutes,99.9999%
same,Post-exposure population,exposure 5 minutes,<1.00 × 10^1 CFU/ML
same,Log10 reduction,exposure 10 minutes,6.1644 Log10
same,Percent reduction,exposure 10 minutes,99.9999%
same,Post-exposure population,exposure 10 minutes,<1.00 × 10^1 CFU/ML
